Experimental findings from article PMC11187542, “Identification of fragments targeting SMYD3 using highly sensitive kinetic and multiplexed biosensor-based screening” (RSC Medicinal Chemistry, 2024) are described below.

Assay [1] has as its target T1, SMYD3 in complex with active site-specific tight-binding inhibitor EPZ031686 (Homo sapiens, UniProt Q9H7B4).
T1 construct: Full length recombinant SMYD3 was produced as previously reported; made in house; host or cells: E. coli BL21(DE3), in some cases Rosetta 2
T1 sequence (Q9H7B4 1-428): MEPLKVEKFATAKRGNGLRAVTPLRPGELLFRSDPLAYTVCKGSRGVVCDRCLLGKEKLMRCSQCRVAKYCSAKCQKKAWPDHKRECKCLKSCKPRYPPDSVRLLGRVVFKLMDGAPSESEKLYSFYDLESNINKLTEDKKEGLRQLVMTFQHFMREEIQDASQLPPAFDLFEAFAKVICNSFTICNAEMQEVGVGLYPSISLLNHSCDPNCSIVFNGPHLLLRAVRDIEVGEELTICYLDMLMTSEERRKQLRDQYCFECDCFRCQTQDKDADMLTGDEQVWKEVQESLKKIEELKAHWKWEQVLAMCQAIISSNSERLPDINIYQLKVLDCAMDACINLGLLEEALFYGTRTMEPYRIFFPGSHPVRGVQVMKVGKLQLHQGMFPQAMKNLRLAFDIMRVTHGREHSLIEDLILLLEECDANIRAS
Briefly: GCI biosensor kinetic screening, active site blocked SMYD3 surface. The text has this:
(§1) A multiplexed screening assay was set up with three different SMYD3 surfaces and a blank reference surface in flow channels 1–4 (FC1–FC4) (Fig. 2a), as described previously.[5] The apo SMYD3 surface detected fragments interacting anywhere on SMYD3, while a SMYD3 surface blocked by active site-specific tight-binding inhibitor EPZ031686 detected compounds binding elsewhere. The denatured surface served as a reference, detecting fragments binding to unfolded proteins, also potentially present to a significant degree in the other two surfaces.
(§2) The library was screened using the approach described in Fig. 1, i.e. injection of fragments at 250 μM for increasing durations of time in a single cycle, using a flow rate of 100 μL min^−1, data acquisition set to 40 Hz and with an association time of 5 s and dissociation of 20 s. Each fragment was addressed to all four channels and interactions with the native and blocked surfaces compared. The experimental conditions were chosen to ensure that the assay could reliably characterize the fast and transient interactions expected from typical fragments.
(§3) The kinetic screening of 1056 compounds was successfully completed in 72 hours. […] Hits were identified with full kinetic information using dissociation phases.
(§4) All interaction kinetic experiments were conducted with a GCI–flow-based biosensor (WAVEdelta, Creoptix AG/Malvern Panalytical) and PCH WAVEchip (Creoptix AG/Malvern Panalytical) sensor chips. The sensor chips were conditioned using injections of borate buffer (10 mM sodium tetraborate pH 8.5, 1 M NaCl). The running buffer composition, if not otherwise stated, was TBS buffer (50 mM Tris, 150 mM NaCl, 0.5 mM TCEP, 0.05% Tween 20, 1% DMSO, pH 8). SMYD3 was diluted to the desired concentration in 10 mM bis-Tris (pH 7.0) and amine coupled to the sensor surface of the PCH sensor chip. The sensor chip was functionalized at 25 °C by immobilising SMYD3 with EDC and NHS (Xantec) using an injection time of 420 s and a flow rate of 10 μL min^−1. The immobilisation levels ranged from 5000 pg mm^−2 to 18 500 pg mm^−2 surface mass to enable analysis of fragments spanning a broad range of affinities. After immobilization, the surface was deactivated with a running buffer containing 50 mM Tris for 420 s. The GCI data referencing and analysis were performed using WAVEcontrol V4.5 (Creoptix AG).
(§5) Kinetic measurements with controls and fragments were performed at 15 °C. Analysis of controls and follow up of hits was done using the multi cycle kinetic (MCK) injection of a concentration series for the same time, with a two-fold serial dilution starting at 250 μM for each compound. Solvent correction was performed ranging from 0.5–1.8% DMSO. Blank samples of the running buffer, 1× TBS (50 mM Tris, 150 mM NaCl, 0.5 mM TCEP, 0.05% Tween 20, 1% DMSO, pH 8), were injected during the measurements every fifth cycle. The experimental design illustrated in Fig. 1 was used for the screening against all four surfaces. The sensorgrams were adjusted to account for solvent correction and blank subtraction. Kinetic fitting was performed with the Direct Kinetics engine of WAVEcontrol software V4.5 (Creoptix AG) with a suitable fitting model.

The target of assay [2] is T2, SMYD3 (apo, native) (Homo sapiens, UniProt Q9H7B4).
T2 construct: Full length recombinant SMYD3 was produced as previously reported; made in house; host or cells: E. coli BL21(DE3), in some cases Rosetta 2
T2 sequence (Q9H7B4 1-428): T1 sequence (Q9H7B4 1-428)
Briefly: GCI biosensor kinetic screening, apo SMYD3 surface. The format is binding.
From the text: as §1
After preparing the sensor surface and immobilising SMYD3, the functionality of the surface was assessed via analysis of interactions with the co-factor product S-adenosyl-homocysteine (SAH). It was used as a control in all experiments, confirming that sensor surfaces were intact. This was done using the novel multiple injection-based experimental design (Fig. 1) at 25 μM, i.e. in a weak binder mode (Fig. 2b).
as §2, §3, §4, §5

For orientation: Kd means the equilibrium constant for the complex coming apart. Higher therefore signals a looser complex. Take `Cn1cnc(S(N)(=O)=O)c1` [FL06268]: the “LE (ligand efficiency)” value is on record as 0.63 (kcal^-1 mol^-1)/HA in assay [1] (LE = −RT ln(KD)/n, blocked SMYD3 surface) and 0.63 (kcal^-1 mol^-1)/HA in assay [2] (LE = −RT ln(KD)/n). In addition, the Kd amounted to 24 µM in assay [1] (initial kinetic screening, fragment 250 μM, 15 °C, SMYD3 blocked by EPZ031686) and 24.5 µM in assay [2] (initial kinetic screening, fragment 250 μM, 15 °C). The kd in assay [1] (initial kinetic screening, fragment 250 μM, 15 °C, SMYD3 blocked by EPZ031686, 1:1 model) came out at 0.83 s⁻¹; in assay [2] (initial kinetic screening, fragment 250 μM, 15 °C, 1:1 model), 0.52 s⁻¹. The kon at 250 µM was determined as 34100 M⁻¹ s⁻¹ in assay [1] (initial kinetic screening, fragment 250 μM, 15 °C, SMYD3 blocked by EPZ031686, 1:1 model, read-out: ka) and 21400 M⁻¹ s⁻¹ in assay [2] (initial kinetic screening, fragment 250 μM, 15 °C, 1:1 model, read-out: ka).
